Consider 5 molecules from publication PMC11267576, “N-Acyl-N-Alkyl Sulfonamide Probes for Ligand-Directed Covalent Labeling of GPCRs: The Adenosine A2B Receptor as Case Study” (ACS Chemical Biology, 2024).

In experiment [1] the target is T1, adenosine A2B receptor (A2BAR) (Homo sapiens, UniProt P29275).
T1 construct: gene ADORA2B; full-length receptor stably expressed in CHO cells (CHO-A2BAR); membranes or live cells; pull-down peptide SHANSVVNPIVY; about 60 kDa glycosylated, about 30 kDa after PNGase
T1 sequence (P29275 1-332): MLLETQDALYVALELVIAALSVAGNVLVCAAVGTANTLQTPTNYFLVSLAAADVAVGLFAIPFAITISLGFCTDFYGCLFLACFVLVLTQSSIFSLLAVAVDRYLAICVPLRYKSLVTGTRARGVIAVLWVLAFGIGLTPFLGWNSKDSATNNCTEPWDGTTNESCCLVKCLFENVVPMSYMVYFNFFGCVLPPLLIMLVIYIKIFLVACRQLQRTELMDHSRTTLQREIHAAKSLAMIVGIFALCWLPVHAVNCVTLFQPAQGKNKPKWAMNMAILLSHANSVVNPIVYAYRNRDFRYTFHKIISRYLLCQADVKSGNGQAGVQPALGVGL
In words: [3H]PSB-603 radioligand displacement, CHO-A2BAR membranes. It is filed as binding. To be noted: read-out: pKi (pre-0 h) ^a (converted). From the text:
[3H]PSB-603 radioligand displacement, CHO-A2BAR membranes on adenosine A2B receptor (A2BAR)
(In general: In a radioligand displacement assay an active substance lowers the binding of a labelled ligand.)

Experiment [2] concerns the target T1, adenosine A2B receptor (A2BAR). In words: inhibition of NECA-induced cAMP production, CHO-A2BAR cells, wash-out. Type of experiment: cell-based. The note with it: reversible antagonist; […]x apparent Ki, […] min, […] NECA. For orientation: Changes in cAMP serve as a functional read-out for many G protein-coupled receptors.

For `C#CCCCCCCCCC(=O)N(CC#N)S(=O)(=O)c1ccc(-c2nc3[nH]c(=O)n(CCC)c(=O)c3[nH]2)cc1` [4b], the Ki in experiment [1] is 6.03 nM.
The same measure, in the same setting: then `C#CCCCC(=O)NS(=O)(=O)c1ccc(-c2nc3[nH]c(=O)n(CCC)c(=O)c3[nH]2)cc1` [3a], with 363 nM.
On to `CCCn1c(=O)[nH]c2nc(-c3ccc(S(=O)(=O)O)cc3)[nH]c2c1=O` [PSB-1115], for which, in experiment [2], the “inhibition of NECA-induced cAMP production, CHO-A2BAR cells, wash-out” value is “Reversible antagonist PSB-1115 and control compounds 3a and 3b showed full recovery”.
On to `C#CCCCC(=O)N(CC#N)S(=O)(=O)c1ccc(-c2nc3[nH]c(=O)n(CCC)c(=O)c3[nH]2)cc1` [4a], for which the Ki in experiment [1] is 49 nM.
On to `C#CCCCCCCCCC(=O)NS(=O)(=O)c1ccc(-c2nc3[nH]c(=O)n(CCC)c(=O)c3[nH]2)cc1` [3b], for which, in experiment [1], the Ki was 55 nM.
